The NIST ThermoML archive (doi:10.1016/j.fluid.2007.01.043)
Numbers after ± are expanded uncertainties.

Assay: cn = amount concentration of the nth substance listed, in mol/dm3
Conditions: 308 K, Liquid; for mass density: 101 kPa; for viscosity: 101.3 kPa

Row | SMILES | mass density (c1 = 0.06) [kg/m3] | mass density (c1 = 0.1) [kg/m3] | viscosity (c1 = 0.06) [mPa·s] | viscosity (c1 = 0.1) [mPa·s]
1 | O=[N+]([O-])[O-].O=[N+]([O-])[O-].[Cu+2] [copper dinitrate] + O | 1002.3 ± 0.8 | 1008.6 ± 0.8 | 0.7347 ± 0.019 | 0.7487 ± 0.02
2 | [Cl][Ni][Cl] [nickel chloride (NiCl2)] + O | 994.09 ± 0.7 | 1004 ± 0.7 | 0.7261 ± 0.019 | 0.7469 ± 0.019
